Consider six compounds from US8865623B2, “Herbicidally active cyclic diones and derivatives thereof, processes for their preparation, compositions, and method of controlling weeds” (Syngenta Limited, priority 2009, dated 2014).

Holding throughout (type): in vivo
The subject of test [1] is Alopecurus myosuroides (ALOMY). Put plainly: Pre-emergence herbicidal activity, glasshouse pot test. The conditions noted are these: evaluated after 13 days; for pest or weed control at 250 g/ha: Alopecurus myosuroides, 312 h, Rate 250 g/ha, pre-emergence spray, read-out: Pre-emergence activity ALOMY (100=total damage to plant; 0=no damage to plant). The essentials:
(§1)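 Herbicide damage scored 0–100 at 13 d. Pre-emergence: spray 1 d after sowing; post-emergence: spray after 8 d growth. Formulation acetone/water 50:50, 0.5% Tween 20, aqueous spray.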

The subject of test [2] is Avena fatua (AVEFA). Described as above. The conditions noted are these: evaluated after 13 days; for pest or weed control at 250 g/ha: Avena fatua, 312 h, Rate 250 g/ha, pre-emergence spray, read-out: Pre-emergence activity AVEFA (100=total damage to plant; 0=no damage to plant). The essentials: as §1
The test system of test [3] is Echinochloa crus-galli (ECHCG). The test is described as above. The conditions noted are these: evaluated after 13 days; for pest or weed control at 250 g/ha: Echinochloa crus-galli, 312 h, Rate 250 g/ha, pre-emergence spray, read-out: Pre-emergence activity ECHCG (100=total damage to plant; 0=no damage to plant). An outline of the steps:
as §1

Test [4] relates to Lolium perenne (LOLPE). The description is as above. The conditions noted are these: evaluated after 13 days; for pest or weed control at 250 g/ha: Lolium perenne, 312 h, Rate 250 g/ha, pre-emergence spray, read-out: Pre-emergence activity LOLPE (100=total damage to plant; 0=no damage to plant). The essentials:
as §1

The subject of test [5] is Alopecurus myosuroides (ALOMY). Briefly: Post-emergence herbicidal activity, glasshouse pot test. The conditions noted are these: rate 250 g/ha, evaluated after 13 days; for pest or weed control at 250 g/ha: Alopecurus myosuroides, 312 h, glasshouse, read-out: Post-emergence activity ALOMY (100=total damage to plant; 0=no damage to plant). The essentials:
as §1

The subject of test [6] is Avena fatua (AVEFA). The test is described as above. The conditions noted are these: rate 250 g/ha, evaluated after 13 days; for pest or weed control at 250 g/ha: Avena fatua, 312 h, glasshouse, read-out: Post-emergence activity AVEFA (100=total damage to plant; 0=no damage to plant). An outline of the steps: as §1
For test [7], the system named is Echinochloa crus-galli (ECHCG). The test is described as above. The conditions noted are these: rate 250 g/ha, evaluated after 13 days; for pest or weed control at 250 g/ha: Echinochloa crus-galli, 312 h, glasshouse, read-out: Post-emergence activity ECHCG (100=total damage to plant; 0=no damage to plant). An outline of the steps: as §1
The test system of test [8] is Lolium perenne (LOLPE). The description is as above. The conditions noted are these: rate 250 g/ha, evaluated after 13 days; for pest or weed control at 250 g/ha: Lolium perenne, 312 h, glasshouse, read-out: Post-emergence activity LOLPE (100=total damage to plant; 0=no damage to plant). An outline of the steps: as §1

Regarding `CCc1ccc(Oc2ccc(Br)cc2)cc1C1=C(O)CCC(C)(C)C1=O` [Example A-113], the pest or weed control at 250 g/ha was 30% in test [1]; 30% in the test on Avena fatua (AVEFA) [2]; 60% in test [3]; 100% in the test on Lolium perenne (LOLPE) [4]; 10% in test [5]; 0% in the test on Avena fatua (AVEFA) [6]. For the same compound, the pest or weed control at 250 g/ha in test [7] is 90%; in the test with Lolium perenne (LOLPE) [8] it was 40%.

As for `CCc1ccc(Oc2ccc(Cl)cc2Cl)cc1C1=C(O)CCCC1=O` [Example A-40], the pest or weed control at 250 g/ha is 50% in test [1]; 20% in the test on Avena fatua (AVEFA) [2]; 80% in test [3]; 50% in the test on Lolium perenne (LOLPE) [4]; 30% in test [5]; 40% in the test with Avena fatua (AVEFA) [6]. Further, the figures for the pest or weed control at 250 g/ha (in test [7]; with Lolium perenne (LOLPE) [8]) were 90% and 30%, respectively.

Take `CCOC(=O)OC1=C(c2cc(Oc3ccc(C#N)cc3F)ccc2CC)C(=O)C(C)(C)OC1(C)C` [Example P-5]: the “ALOMY damage to plant (100=total damage to plant; 0=no damage to plant)” value in test [1] (pre-emergence, rate 250 g/ha) is given as 100; in test [5], 80. The “AVEFA damage to plant (100=total damage to plant; 0=no damage to plant)” value is recorded as 70 in the test on Avena fatua (AVEFA) [2] (pre-emergence, rate 250 g/ha) and 70 in the test on Avena fatua (AVEFA) [6]. In addition, the “ECHCG damage to plant (100=total damage to plant; 0=no damage to plant)” value in test [3] (pre-emergence, rate 250 g/ha) was 100; in test [7], 100. Further, the “LOLPE damage to plant (100=total damage to plant; 0=no damage to plant)” value with Lolium perenne (LOLPE) [4] (pre-emergence, rate 250 g/ha) is 100; in the test with Lolium perenne (LOLPE) [8], 80.

For `CCc1ccc(Oc2ccc(Cl)cc2Br)cc1C1=C(O)C(C)(C)OC(C)(C)C1=O` [Example A-23], the pest or weed control at 250 g/ha in test [1] worked out at 70%; with Avena fatua (AVEFA) [2] it was 70%; in test [3] it was 90%; in the test with Lolium perenne (LOLPE) [4], 90%; in test [5] it was 80%; in the test on Avena fatua (AVEFA) [6], 80%. The figures for the pest or weed control at 250 g/ha (in test [7]; in the test with Lolium perenne (LOLPE) [8]) were 100% and 90%, respectively.

Consider `CCc1ccc(Oc2cc(F)cc(F)n2)cc1C1=C(O)C(C)(C)OC(C)(C)C1=O` [Example A-156], for which the pest or weed control at 250 g/ha in test [1] was 20%; in the test with Avena fatua (AVEFA) [2] it was 0%; in test [3], 60%; with Lolium perenne (LOLPE) [4] it was 20%; in test [5], 30%; in the test with Avena fatua (AVEFA) [6], 20%. In addition, the pest or weed control at 250 g/ha came out at 50% in test [7] and 20% with Lolium perenne (LOLPE) [8].

`CCc1ccc(Oc2ccc(F)cc2F)cc1C1=C(O)CC(C)(C)CC1=O` [Example A-47]: the pest or weed control at 250 g/ha in test [1] came out at 50%; in the test on Avena fatua (AVEFA) [2] it was 0%; in test [3], 90%; with Lolium perenne (LOLPE) [4], 40%; in test [5] it was 30%; in the test with Avena fatua (AVEFA) [6] it was 10%. Besides, the pest or weed control at 250 g/ha in test [7] amounted to 80%; in the test with Lolium perenne (LOLPE) [8], 30%.
